Assay results as given in patent US9561239B2, “Compositions and methods for inhibiting norovirus infection” (Children's Hospital Medical Center, priority 2013, dated 2017).
Where two headings read alike, the source gives them in different places.

Experiments:
[1] = biological target: P dimers of VA387 (GII.4) binding to saliva HBGAs (Norovirus GII.4 (Human calicivirus NLV/VA98387/1998), UniProt Q913Z3); assay: Saliva-based NoV/HBGA blocking assay; parameters: species or system Norovirus VA387 (GII.4)
P dimers of VA387 (GII.4) binding to saliva HBGAs, sequence (Q913Z3 214-539): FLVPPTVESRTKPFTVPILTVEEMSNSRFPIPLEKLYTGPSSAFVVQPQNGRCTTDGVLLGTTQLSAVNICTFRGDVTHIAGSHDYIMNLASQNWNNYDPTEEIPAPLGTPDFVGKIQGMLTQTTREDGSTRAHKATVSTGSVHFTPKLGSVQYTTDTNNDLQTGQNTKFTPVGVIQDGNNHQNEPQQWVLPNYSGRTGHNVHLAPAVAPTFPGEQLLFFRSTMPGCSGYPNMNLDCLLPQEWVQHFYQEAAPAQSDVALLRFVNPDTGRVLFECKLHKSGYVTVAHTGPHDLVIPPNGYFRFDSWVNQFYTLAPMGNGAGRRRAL
Procedure: (§1) Saliva-based NoV-HBGA binding assays were performed as described previously using P dimers of VA387 (GII.4) as NoV surrogates and saliva samples and/or synthetic oligosaccharides as HBGA sources. Briefly, synthetic oligosaccharides and/or boiled saliva samples with defined HBGAs phenotype were coated on 96-well microtiter plates, after blocking with nonfat milk, P dimer of VA387 were added. The bound P dimer was detected using a guinea pig antiserum against NoVs VLPs, followed by the addition of horseradish peroxidase (HRP)-conjugated goat anti-guinea pig IgG. The bound HRP conjugates were colorized by the TMB kit (Kirkegaard & Perry Laboratories), which was read an EIA spectrum reader (Tecan). The synthetic oligosaccharide-PAA conjugates (2 μg/ml, GlycoTech Corporation, Rockville, Md.) were captured to a microtiter plate through coated streptavidin (5 μg/ml).
(§2) Blocking effects of the hit compounds were measured by a pre-incubation of the P dimers with the compounds at given concentrations for 30 min before the P dimers were added to the coated saliva samples or HBGA oligosaccharides in a binding assay. The blocking activity of a compound was defined as its concentration yielding 50% inhibition (IC50) in the binding assay. IC50 calculation was performed using Probit regression analysis and correlation analysis between IC50 and Ki values was performed with nonparametric Spearman's r (two-tailed) by using SPSS statistical software version 13.0 (SPSS, Chicago, Ill.).

[2] = biological target: VA387 P dimer binding to the synthetic A and B oligosaccharides (Norovirus GII.4 (Human calicivirus NLV/VA98387/1998), UniProt Q913Z3); assay: Synthetic HBGA oligosaccharide-PAA conjugate blocking assay; parameters: species or system Norovirus VA387 (GII.4)
VA387 P dimer binding to the synthetic A and B oligosaccharides, sequence (Q913Z3 214-539): as above
Procedure: as §1, §2

[3] = MTS cytotoxicity assay; type: cell-based, human; rhesus monkey; details: HeLa and LLC-MK2 cells, 3 days incubation; cell line per value not stated
Procedure: This assay was performed using CellTiter 96 aqueous nonradioactive cell proliferation kits (Promega, Madison, Wis.) as described elsewhere. Briefly, HeLa and LLC-MK2 cells were seeded at 5×10^4 cells/ml onto a 96-well plate overnight. After an incubation with each compound at various concentrations for 3 days (the compound was added one time at the beginning of the incubation), the culture medium was replaced with fresh one with 100 μl of MTS-phenazine methosulfate/well. After a further incubation at 37° C. for 2 h, the color products of MTS were measured with a plate reader at 490 nm. The cytotoxicities of individual compounds were indicated by the decrease in cellular reduction of MTS into the colored product. The 50% cytotoxic concentrations (CC50) were determined as the concentrations of the compounds that caused 50% inhibition of cell growth compared with that of control cells without a compound.

[4] = Activity (IC50), blocking the binding of NoV P dimer to HBGAs, given as range or bound
[5] = IC50 Saliva A, blocking assay, type A saliva as HBGA source, mean ± standard deviation
[6] = IC50 Saliva B, blocking assay, type B saliva as HBGA source, mean ± standard deviation
[7] = blocking assay, type A saliva as HBGA source, mean ± standard deviation, read-out: IC50 Saliva A
[8] = blocking assay, type B saliva as HBGA source, mean ± standard deviation, read-out: IC50 Saliva B

SMILES	IC50 [1, 4]	IC50 [1, 5]	IC50 [1, 6]	IC50 [2]	CC50 at 3 days [3]	IC50 [1, 7]	IC50 [1, 8]
CC(=O)C1CCC2C3CC[C@H]4CC(O)CCC4(C)C3CCC12C (stereo partly drawn) [Compound 2]	1 to 10 µM	2.9 ± 0.33 µM	2.93 ± 0.18 µM	< 10 µM	267 µM		
CC1CCc2c(sc3ncn(C(C)C(=O)N/N=C/c4c(O)ccc5ccccc45)c(=O)c23)C1 (stereo not drawn) [Compound 9]						17 ± 1.06 µM	16.8 ± 0.87 µM
O=[N+]([O-])c1ccc2c(c1)C1C=CCC1C(C1CC=CCC1)N2 (stereo not drawn) [Compound 7]	10 to 20 µM						13.1 ± 0.87 µM
O=C(O)c1ccc(C2Nc3c(F)cccc3C3C=CCC32)cc1 (stereo not drawn) [Compound 20]	20 to 40 µM					38 ± 2.01 µM	39.4 ± 1.53 µM
C[C@]12CC[C@H](O)C=C1CC[C@@H]1C2CC[C@@]2(C)C1CC[C@@]21CCC(=O)O1 (stereo partly drawn) [Compound 15]		28.5 ± 1.54 µM	29.4 ± 1.24 µM				
CNc1cc([N+](=O)[O-])cc2c1NC(c1ccccn1)C1CC=CC21 (stereo not drawn) [Compound 12]	20 to 40 µM						
C[C@]12CCC3C(CC[C@H]4CC=CC[C@]34C)C1CC/C2=N/NC(N)=S (stereo partly drawn) [Compound 5]				< 10 µM		8.7 ± 1.03 µM	8.97 ± 0.63 µM
O=C1CC(c2ccc([N+](=O)[O-])cc2)c2ccc3ccccc3c2N1 (stereo not drawn) [Compound 13]	20 to 40 µM					24.5 ± 0.98 µM	26.3 ± 1.24 µM
Cc1ccc(C2CC(=O)Nc3c2ccc2ccccc32)cc1[N+](=O)[O-] (stereo not drawn) [Compound 17]	20 to 40 µM						33.7 ± 1.27 µM
CC(=O)OCC(=O)C1CCC2C3CC=C4CC(O)CCC4(C)C3CCC12C (stereo not drawn) [Compound 16]	20 to 40 µM					30.9 ± 1.04 µM	30.1 ± 1.35 µM
C[C@]12CC[C@H]3[C@@H](CCC4=C/C(=N/OCC(=O)NCC(=O)O)CC[C@@]43C)[C@@H]1CC[C@H]2O [Compound 10]	10 to 20 µM	18.7 ± 0.35 µM	18.6 ± 0.62 µM				
CC(=O)C1=CCC2[C@@H]3CC=C4C[C@H](O)CC[C@]4(C)C3CC[C@]12C (stereo partly drawn) [Compound 14]	20 to 40 µM	24.8 ± 2.02 µM	25.1 ± 1.32 µM				
CC1(C)CC(=O)C2=C(C1)c1c(ccc3ccccc13)NC2 [Compound 8]	10 to 20 µM					14.1 ± 0.53 µM	14.9 ± 0.71 µM
CC(CCC(=O)O)C1CCC2C3CC=C4CC(O)CCC4(C)C3CCC12C (stereo not drawn) [Compound 4]				< 10 µM			7.65 ± 0.33 µM
CC12CCC3C(CCC4CC(=O)CCC43C)C1CCC2O (stereo not drawn) [Compound 19]	20 to 40 µM					36.9 ± 1.47 µM	35.7 ± 1.06 µM
Cc1noc2c1C1(C)CCC3C(CC=C4CC(O)CCC43C)C1C2 (stereo not drawn) [Compound 18]	20 to 40 µM					33.9 ± 1.67 µM	34.5 ± 1.93 µM
Nc1ccc2c(c1)C1C=CCC1C(c1ccc([N+](=O)[O-])cc1)N2 (stereo not drawn) [Compound 6]	10 to 20 µM					12.6 ± 0.87 µM	12.8 ± 0.64 µM
C[C@]12CC[C@H](O)C=C1CC[C@@H]1C2CC[C@@]2(C)C1CC[C@@]21CCC(=O)O1 (stereo partly drawn) [Compound 11]	20 to 40 µM	22.7 ± 1.36 µM	23.7 ± 1.28 µM				
C/C(=N/O)C1=CCC2C3CC[C@H]4C/C(=N\O)CC[C@]4(C)C3CC[C@]12C (stereo partly drawn) [Compound 1]				< 10 µM		2.38 ± 0.15 µM	2.54 ± 0.21 µM
C[C@]12CC[C@H](O)C[C@@H]1CC[C@@H]1[C@@H]2CC[C@@]2(C)[C@H]1CC[C@]2(C)O [Compound 3]				< 10 µM			3.39 ± 0.24 µM
